Assay results: patent US11840731B2, “Method for diagnosing and treating subjects having single nucleotide polymorphisms in chromosome 2, 2:107,510,000-107,540,000 locus” (NEURIM PHARMACEUTICALS (1991) LTD., priority 2021, dated 2023)
Marks after values point to notes of the source that are not given here.

Experiments:
[1] = test system: patients with early symptomatic Alzheimer's disease; test: neuropsychiatric inventory (NPI), randomized placebo controlled study; assay type: in vivo, human; conditions: for NPI Improvement: 20 mg daily for 26 weeks
[2] = test system: patients with early symptomatic Alzheimer's disease; test: computerized Neuropsychological Test Battery (cNTB), randomized placebo controlled study; assay type: in vivo, human; set-up: key to cNTB Improvement: ns = non-significant effect; deter = deterioration compared to placebo; conditions: for cNTB: 5, 20 and 50 mg daily for 26 weeks, change from baseline
Procedure: DNA extraction and SNP genotyping were performed as follows: For 107 patients, whole blood was collected at the time of enrollment, and genomic DNA was extracted from peripheral lymphocytes using a commercial kit. Variant genotyping of a combined Whole Genome and Whole Exome sequencing, was performed. The detection of variants associated with the response of the treatment was performed through a genome wide association study (GWAS) analysis (which is a known case-control paradigm). […] The general case-control allelic test was performed through a Cochran-Armitage trend test. […] The stratification was assessed by a complete-linkage hierarchical clustering using the pairwise population concordance as a constraint. The SNP calling was done on the aligned BAM files using DRAGEN: […]

5HT1b = 5HT1b (Homo sapiens, UniProt P28222); test: functional assay, cellular dielectric spectroscopy (impedance); assay type: cell-based
Sequence of 5HT1b (P28222 whole entry, species assumed): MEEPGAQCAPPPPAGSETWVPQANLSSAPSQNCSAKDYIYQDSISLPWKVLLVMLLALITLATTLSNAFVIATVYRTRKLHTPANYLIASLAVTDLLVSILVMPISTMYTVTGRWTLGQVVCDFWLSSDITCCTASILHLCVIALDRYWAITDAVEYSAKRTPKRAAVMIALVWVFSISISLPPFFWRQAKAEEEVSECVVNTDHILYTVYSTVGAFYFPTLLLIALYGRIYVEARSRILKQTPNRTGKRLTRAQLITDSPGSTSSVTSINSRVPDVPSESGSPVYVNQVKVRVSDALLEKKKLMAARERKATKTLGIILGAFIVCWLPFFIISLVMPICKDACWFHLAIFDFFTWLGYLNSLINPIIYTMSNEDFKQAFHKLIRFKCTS
Text: (§1) For the functional assay, Homogeneous Time Resolved Fluorescence (HTRF) was used to measure cAMP or IP1 as products of the functional agonist or antagonist binding of 5-HT1a, 2a,2b, 2c, 4e, 6, 7 to their respective ligand (8-OG-DPAT or serotonin). Cellular dielectric spectroscopy was used to measure impedance as the product of the functional agonist or antagonist binding of 5HT1b and determine their respective ligand (serotonin).

[3] = test system: patients with early symptomatic Alzheimer's disease; test: Alzheimer's Disease Assessment Scale cognitive subscale (ADAS-Cog14), randomized placebo controlled study; assay type: in vivo, human; set-up: key to ADAS-Cog14 Improvement: ns = non-significant effect; deter = deterioration compared to placebo
[4] = test system: 60 different ion channels and receptors of different neurotransmitters and hormones; test: full profile of binding parameters, 60 receptor assays; conditions: 10 μM; none of the 60 receptor assays significant
Procedure: A full profile of binding parameters to an additional 60 different ion channels and receptors of different neurotransmitters and hormones was performed (data not shown because none of the 60 receptor assays yielded a significant (>50%) inhibition by 10 μM of piromelatine).

[5] = test system: patients with early symptomatic Alzheimer's disease; test: sleep quality index (PSQI), randomized placebo controlled study; assay type: in vivo, human; conditions: non-carriers (N = 23); 20 mg daily for 26 weeks
5-HT-1b receptor = biological target: T1, 5-HT-1b receptor (Rattus norvegicus, UniProt P28564); test: receptor binding assay, radioligand 125I CYP, rat cerebral cortex; conditions: 5-HT1B
T1 construct: from tissue; host or cells: rat cerebral cortex
T1 sequence (P28564 whole entry): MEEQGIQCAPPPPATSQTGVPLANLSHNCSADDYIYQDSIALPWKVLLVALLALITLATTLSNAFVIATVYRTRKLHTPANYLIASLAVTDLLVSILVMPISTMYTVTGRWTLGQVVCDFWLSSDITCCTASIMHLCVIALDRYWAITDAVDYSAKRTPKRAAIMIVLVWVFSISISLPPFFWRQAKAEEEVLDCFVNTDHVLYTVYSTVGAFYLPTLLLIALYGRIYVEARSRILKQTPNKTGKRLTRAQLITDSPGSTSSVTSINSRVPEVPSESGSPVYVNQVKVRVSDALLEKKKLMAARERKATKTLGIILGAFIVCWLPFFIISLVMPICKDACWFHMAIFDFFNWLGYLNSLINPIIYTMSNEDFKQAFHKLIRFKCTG
Procedure: (§2) For receptor binding assays, stably expressing 5-HT1a, 1b, 1d and 2c receptors cells (HEK-293, rat cerebral cortex, CHO and HEK-293, respectively) were incubated with 0.3 or 1 nM of their respective radioligand (^3H-OH-DPAT, ^125I CYP, ^3H serotonin and ^3H-mesulergine) alone or in the presence of 1 nM to 10 μM of piromelatine. The bound radioligand was assessed. Non-specific binding was evaluated under the reaction contained with 8-OH-PTA, serotonin and RS-10221 (8-[5-(2,4-Dimethoxy-5-(4-trifluoromethylphenylsulphonamido)phenyl-5-oxopentyl]-1,3,8-triazaspiro[4.5]decane-2,4-dione hydrochloride).

5-HT1a [6] = biological target: T2, 5-HT1a (Homo sapiens, UniProt P08908); test: receptor binding assay, radioligand 3H-OH-DPAT, HEK-293 cells; set-up: expressed in transfected cells; host or cells: HEK-293; conditions: 5-HT1A
T2 sequence (P08908 1-422): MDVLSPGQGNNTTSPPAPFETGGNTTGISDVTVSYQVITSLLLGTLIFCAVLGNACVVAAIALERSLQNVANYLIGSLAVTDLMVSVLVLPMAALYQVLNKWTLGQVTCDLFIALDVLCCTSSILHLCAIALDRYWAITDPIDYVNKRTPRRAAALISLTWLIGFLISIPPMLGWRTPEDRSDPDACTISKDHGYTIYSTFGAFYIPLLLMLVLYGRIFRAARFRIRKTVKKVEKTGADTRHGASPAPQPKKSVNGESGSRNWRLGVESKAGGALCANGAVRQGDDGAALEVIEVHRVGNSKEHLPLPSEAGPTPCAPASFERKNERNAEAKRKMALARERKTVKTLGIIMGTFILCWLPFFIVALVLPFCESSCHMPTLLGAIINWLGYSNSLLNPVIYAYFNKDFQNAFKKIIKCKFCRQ
Procedure: as §2

5-HT-2a receptor = 5-HT-2a receptor (Homo sapiens, UniProt P28223); test: receptor binding assay; conditions: 5-HT2A
Sequence of 5-HT-2a receptor (P28223 whole entry): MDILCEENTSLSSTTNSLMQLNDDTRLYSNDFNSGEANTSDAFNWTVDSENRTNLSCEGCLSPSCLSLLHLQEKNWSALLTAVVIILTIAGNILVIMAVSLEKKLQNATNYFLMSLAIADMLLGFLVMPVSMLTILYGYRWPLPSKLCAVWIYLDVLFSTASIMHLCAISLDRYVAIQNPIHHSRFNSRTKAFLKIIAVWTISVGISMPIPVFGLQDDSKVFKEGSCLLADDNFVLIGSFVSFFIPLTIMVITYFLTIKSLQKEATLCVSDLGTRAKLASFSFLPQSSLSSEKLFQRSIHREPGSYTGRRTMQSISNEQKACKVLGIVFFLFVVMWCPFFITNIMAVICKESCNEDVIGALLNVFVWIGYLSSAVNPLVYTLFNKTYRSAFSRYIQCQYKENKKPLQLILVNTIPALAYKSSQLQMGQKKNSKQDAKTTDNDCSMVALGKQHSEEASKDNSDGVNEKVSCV

5-HT1a [7] = biological target: T2, 5-HT1a; test: functional assay, HTRF (cAMP or IP1); assay type: cell-based
Text: as §1

[8] = test system: patients with early symptomatic Alzheimer's disease; test: computerized Neuropsychological Test Battery (cNTB), randomized placebo controlled study; assay type: in vivo, human
5-HT1d = test: functional assay; assay type: cell-based; conditions: 5-H 1d
5-HT-2b receptor = 5-HT-2b receptor (Homo sapiens, UniProt P41595); test: receptor binding assay; conditions: 5-HT2B
Sequence of 5-HT-2b receptor (P41595 whole entry): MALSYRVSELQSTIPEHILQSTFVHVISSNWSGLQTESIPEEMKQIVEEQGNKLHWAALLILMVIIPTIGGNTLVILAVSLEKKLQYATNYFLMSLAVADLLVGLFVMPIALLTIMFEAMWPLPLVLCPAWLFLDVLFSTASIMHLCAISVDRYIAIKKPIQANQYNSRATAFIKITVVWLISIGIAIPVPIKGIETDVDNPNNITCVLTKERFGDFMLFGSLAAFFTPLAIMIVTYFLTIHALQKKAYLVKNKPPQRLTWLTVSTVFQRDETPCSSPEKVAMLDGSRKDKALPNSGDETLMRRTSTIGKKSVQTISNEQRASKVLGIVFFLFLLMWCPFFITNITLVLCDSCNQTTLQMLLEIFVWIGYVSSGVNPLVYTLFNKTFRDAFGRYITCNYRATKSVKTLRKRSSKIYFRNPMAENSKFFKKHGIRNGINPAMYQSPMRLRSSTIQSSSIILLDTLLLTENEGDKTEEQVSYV

5-HT-2c receptor = biological target: T3, 5-HT-2c receptor (Homo sapiens, UniProt P28335); test: receptor binding assay, radioligand 3H-mesulergine, HEK-293 cells; conditions: 5-HT2C
T3 construct: expressed in transfected cells; host or cells: HEK-293
T3 sequence (P28335 33-458): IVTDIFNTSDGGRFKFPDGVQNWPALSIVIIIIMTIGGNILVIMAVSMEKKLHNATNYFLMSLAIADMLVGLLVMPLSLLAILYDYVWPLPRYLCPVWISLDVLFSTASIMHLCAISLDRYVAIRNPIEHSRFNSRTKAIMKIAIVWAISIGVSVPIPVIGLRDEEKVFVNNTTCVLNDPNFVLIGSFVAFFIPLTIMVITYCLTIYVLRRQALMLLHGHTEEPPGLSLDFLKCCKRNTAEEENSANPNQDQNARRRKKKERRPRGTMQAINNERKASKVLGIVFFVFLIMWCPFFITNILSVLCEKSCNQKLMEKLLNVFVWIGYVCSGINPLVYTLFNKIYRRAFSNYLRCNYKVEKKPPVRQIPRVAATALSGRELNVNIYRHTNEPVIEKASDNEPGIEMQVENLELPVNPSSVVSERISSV
Procedure: as §2

[9] = locus polymorphism carriers, 5, 20 and 50 mg, 26 weeks, N = 19, vs placebo
[10] = locus polymorphism non-carriers, 5, 20 and 50 mg, 26 weeks, N = 59, vs placebo
[11] = whole study, n=352, 5, 20, and 50 mg daily for 6 months

COc1ccc2[nH]cc(CCNC(=O)c3cc(=O)cco3)c2c1 [piromelatine, N-(2-(5-methoxy-1H-indol-3-yl)ethyl)-4-oxo-4H-pyran-2-carboxamide]
NPI Improvement ([1]; carriers (N = 12)): yes
NPI aberrant movements ([1]; carriers, 20 mg): improvement
NPI Improvement ([1]; non-carriers (N = 23)): yes
cNTB Improvement ([2]; carriers (N = 12), 20 mg daily for 26 weeks): yes
cNTB attention domain composite score ([2]; carriers, 5 mg): improved
cNTB episodic memory domain composite score ([2]; carriers, 5 mg): improved
cNTB episodic memory domain composite score ([2]; carriers, 20 mg): improved
cNTB ([2]; locus polymorphism carriers, N = 19): 0.38*
cNTB Improvement [2, 9]: yes
cNTB ([2]; locus polymorphism non-carriers, N = 59): −0.04
cNTB Improvement [2, 10]: ns
agonist activity (5HT1b): Low agonist activity
ADAS Cog14, Cohen's d vs placebo > 0.2 ([3]; carriers, 5 mg daily for 26 weeks): improvement
ADAS-Cog14 ([3]; locus polymorphism carriers, 5, 20 and 50 mg daily for 26 weeks, N = 19): 0.63*
ADAS-Cog14 Improvement [3, 9]: deter
ADAS-Cog14 Improvement [3, 10]: yes
ADAS-Cog14 Improvement ([3]; non-carriers (N = 23), 20 mg daily for 26 weeks): yes
ADAS Cog14, Cohen's d vs placebo > 0.20 ([3]; non-carriers, 5 mg daily for 26 weeks): no improvement
ADAS-Cog14, drug vs placebo [3, 11]: no statistically significant differences
inhibition [4]: ≤ 50%
PSQI Improvement [5]: yes
affinity in words (5-HT-1b receptor): low affinity
affinity in words (5-HT1a [6]): low affinity
affinity in words (5-HT-2a receptor): low affinity
agonist activity (5-HT1a [7]): moderate agonist activity
cNTB attention domain composite score ([8]; carriers, 20 mg): improved
global composite score of the cNTB, drug vs placebo [8, 11]: no statistically significant differences
agonist activity (5-HT1d): moderate agonist activity
affinity in words (5-HT-2b receptor): low affinity
affinity in words (5-HT-2c receptor): low affinity
